# According to patent US20260116921A1, “PEPTIDE INHIBITORS OF INTERLEUKIN-23 RECEPTOR AND THEIR USE TO TREAT INFLAMMATORY DISEASES” (priority 2018, published 2026):
# Like-named read-outs stand apart in the source and are kept apart here. Bridge positions count the residues as written; N and C are the ends. Square brackets hold non-standard residues; d marks the D form. Peptide text beside a SMILES is read from it. Trp(7-Me) = Cc1cccc2c(C[C@H](N)C(=O)O)c[nH]c12; 2Nal = N[C@@H](Cc1ccc2ccccc2c1)C(=O)O; AEF = NCCOc1ccc(C[C@H](N)C(=O)O)cc1; Cit = NC(=O)NCCC[C@H](N)C(=O)O; Pen = CC(C)(S)[C@H](N)C(=O)O; αMeK = C[C@](N)(CCCCN)C(=O)O; Aib = CC(C)(N)C(=O)O
# Columns and labels:
# [1] = in vitro; format: in vitro ADME; parameters: half-life: dose or concentration left out as unconfirmed; conditions: pH 6.8, 37° C., § matrix is 100 fold dilution of standard SIF concentration; for SIF t½: simulated intestinal fluid, pancreatin; for half-life: simulated intestinal fluid (SIF) with pancreatin, read-out: SIF t½ (converted)
# Protocol: SIF was prepared by adding 6.8 g of monobasic potassium phosphate and 10.0 g of pancreatin to 1.0 L of water. After dissolution, the pH was adjusted to 6.8 using NaOH. DMSO stocks (2 mM) were first prepared for the test compounds. Aliquots of the DMSO solutions were dosed into 6 individual tubes, each containing 0.5 mL of SIF, which is pre-warmed to 37° C. The final test compound concentration was 20 M. The vials were kept in a benchtop Thermomixer® for the duration of the experiment. At each timepoint (0, 5, 10, 20, 40, 60, or 360 minutes or 24 hours), 1.0 mL of acetonitrile containing 1% formic acid was added to one vial to terminate the reaction. Samples were stored at 4° C. until the end of the experiment. After the final timepoint is sampled, the tubes were mixed and then centrifuged at 3,000 rpm for 10 minutes. Aliquots of the supernatant were removed, diluted 1:1 into distilled water containing internal standard, and analyzed by LCMS/MS. Percent remaining at each timepoint was calculated based on the peak area response ratio of test to compound to internal standard. Time 0 was set to 100%, and all later timepoints were calculated relative to time 0. Half-lives were calculated by fitting to a first-order exponential decay equation using Graphpad.
# [2] = Stability in simulated gastric fluid (SGF); format: in vitro ADME; conditions: pH=2, 37° C., 20 μM peptide; for half-life at 20 μM: pig (pepsin), simulated gastric fluid (SGF) with porcine pepsin, read-out: SGF t½ (converted); for SGF t½: porcine pepsin
# Protocol: SGF was prepared by adding 20 mg NaCl, 32 mg porcine pepsin (MP Biochemicals, catalog 02102599), and 70 μl HCl to 10 ml water (final pH=2). Aliquots of SGF (0.5 ml each) were pre-warmed at 37° C. To start the reaction, 1 μl of peptide stock solution (10 mM in DMSO) was added to 0.5 ml SGF and thoroughly mixed such that the final peptide concentration was 20 μM. The reactions were incubated at 37° C. with gentle shaking. At each time point (0, 15, 30, 60 min) 50 μl aliquots were removed and added to 200 ul acetonitrile containing 0.1% formic acid to quench the reaction. Samples are stored at 4° C. until the end of the experiment and centrifuged at 10,000 rpm for 5 minutes. Aliquots of the supernatant were removed, diluted 1:1 into distilled water containing internal standard, and analyzed by LCMS/MS. Percent remaining at each timepoint was calculated based on the peak area response ratio of test to compound to internal standard. Time 0 was set to 100%, and all later timepoints were calculated relative to time 0. Half-lives were calculated by fitting to a first-order exponential decay equation using GraphPad.
# [3] = molecular target: T1, IL-23R (Homo sapiens, UniProt Q5VWK5); experiment: DB cells IL23R pSTAT3 cell assay (pStat3 HTRF); format: cell-based
# T1 sequence (Q5VWK5 24-629): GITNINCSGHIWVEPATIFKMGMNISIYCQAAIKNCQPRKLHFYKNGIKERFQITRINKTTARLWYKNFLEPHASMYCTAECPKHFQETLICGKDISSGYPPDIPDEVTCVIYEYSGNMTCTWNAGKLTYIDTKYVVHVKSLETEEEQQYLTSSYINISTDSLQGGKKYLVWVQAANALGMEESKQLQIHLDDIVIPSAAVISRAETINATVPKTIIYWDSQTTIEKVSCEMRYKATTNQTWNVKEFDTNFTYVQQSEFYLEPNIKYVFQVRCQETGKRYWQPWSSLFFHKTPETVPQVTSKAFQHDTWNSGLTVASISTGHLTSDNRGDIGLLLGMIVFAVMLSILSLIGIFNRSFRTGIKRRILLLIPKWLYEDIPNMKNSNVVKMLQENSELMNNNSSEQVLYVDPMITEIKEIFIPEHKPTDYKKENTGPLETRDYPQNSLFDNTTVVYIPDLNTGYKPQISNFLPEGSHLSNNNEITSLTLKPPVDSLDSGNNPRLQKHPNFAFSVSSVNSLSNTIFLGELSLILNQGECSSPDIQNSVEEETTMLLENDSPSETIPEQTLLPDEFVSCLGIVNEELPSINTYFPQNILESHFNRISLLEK
# Procedure, shortened: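 DB cells (5×10E5/well, RPMI-1640 + 10% FBS) stimulated with 0.5 nM final IL-23 plus serially diluted test peptides for 30 min at 37 °C, 5% CO2. Phospho-STAT3 (Tyr705) in lysates measured by HTRF using a two-plate protocol.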
# [4] = tested on: NK cells; experiment: NK cell based assay (IL-23/IL-18-induced IFNγ, Quantikine ELISA); conditions: human primary NK cells, IL-23 at EC50 to EC75 + IL-18 10 ng/mL, IFNγ after 20 to 24 hours
# Protocol: killer (NK) cells, purified from human peripheral blood of healthy donors by negative selection (Miltenyi Biotech, Cat #130-092-657), were cultured in complete media (RPMI 1640 containing […], L-glutamine and penicillin-streptomycin) in the presence of IL-2 (RnD, Cat #202-IL-010/CF) at 25 ng/mL. After 7 days, cells were centrifuged, and resuspended in complete media at IE6 cells/mL. […] After 20 to 24 hours, IFNγ in the supernatant was quantified using Quantikine ELISA (RnD, Cat #DIF50).
# [5] = in vitro; conditions: human, 20% fecal homogenate (supernatant), anaerobic, pH 6.8
# [6] = in vitro; conditions: cynomolgus monkey, 20% fecal homogenate (supernatant), anaerobic, pH 6.8
# Protocol: Fecal homogenate (20%) was prepared by adding 4 mL of growth medium (1 liter contains 2 g peptone water powder, 2 g yeast extract, 0.1 g NaCl, 0.04 g KH2PO4, 0.01 g CaCl2·6H2O, 0.01 g MgSO4·7H2O, 2 mL Tween 80, 0.5 g bile salts, 0.5 g L-cysteine HCl, 2 g NaHCO3, and 10 μL Vitamin K, pH adjusted to 6.8, and sterilized by filtration through a 0.22 μm filter) to every gram of feces (pooled freshly collected human or cynomolgus monkey feces). The suspension was vortexed to break up large clumps, and homogenized using a bead mill homogenizer. Centrifuged the homogenate at 2800×g for 15 min. The supernatant is taken out and used for incubations. DMSO stocks (10 mM) were first prepared for the test compounds. Incubations were performed in an anaerobic chamber conditioned at 37° C. Aliquots of the DMSO solutions were dosed into 1.0 mL aliquots of 20% fecal homogenate, which are pre-warmed to 37° C. The final test compound concentration was 20 μM. At each timepoint (0, 20 min, 1, 3, 6, or 24 hours), 100 μL aliquot of each incubation mixture is taken out and added to separate tubes containing 300 μL of 50% acetonitrile/50% methanol and an internal standard to terminate the reaction. Samples were taken out of the anaerobic chamber and stored at 4° C. until the end of the experiment. After the final timepoint is sampled, the tubes were mixed and then centrifuged at 3,000 rpm for 10 minutes. Aliquots of the supernatant were removed, diluted 1:1 into distilled water containing 0.1% formic acid, and analyzed by LC/MS/MS. Percent remaining at each timepoint was calculated based on the peak area response ratio of test to compound to internal standard. Time 0 was set to 100%, and all later timepoints were calculated relative to time 0. Half-lives were calculated by fitting to a first-order exponential decay equation using Graphpad or Excel.
# [7] = in vitro; conditions: both, SD, rat, plasma (EDTA)
# [8] = Table E3, DB cells, IL-23 0.5 nM, 30 minutes at 37° C., read-out: pStat3 HTRF (IC50)
SMILES,SIF t½ [1],half-life at 20 μM [2],IC50 [3],half-life [1],SGF t½ [2],IC50 [4],half-life at 20 μM [5],half-life at 20 μM [6],half-life at 20 μM [7],"IC50 [3, 8]"
CC(=O)NCCCC[C@H](NC(=O)[C@](C)(CC(C)C)NC(=O)[C@H](Cc1ccc2ccccc2c1)NC(=O)[C@H](Cc1ccc(OCCN)cc1)NC(=O)[C@H]1NC(=O)[C@H](CCC(N)=O)NC(=O)[C@H](Cc2c[nH]c3cc(Cl)ccc23)NC(=O)[C@H]([C@@H](C)O)NC(=O)[C@H](CC(N)=O)NC(=O)[C@@H](NC(C)=O)C(C)(C)SSC1(C)C)C(=O)N[C@@H](CC(N)=O)C(=O)N[C@@H](CC(N)=O)C(N)=O [compound 2],24 h,13 h,10 to 100 nM,–,–,–,–,–,–,–
CC(=O)NCCCC[C@H](NC(=O)[C@](C)(CC(C)C)NC(=O)[C@H](Cc1ccc2ccccc2c1)NC(=O)[C@H](Cc1ccc(OCCN)cc1)NC(=O)[C@H]1NC(=O)[C@H](CCC(N)=O)NC(=O)[C@H](Cc2c[nH]c3ccc(F)cc23)NC(=O)[C@H]([C@@H](C)O)NC(=O)[C@H](CC(N)=O)NC(=O)[C@@H](NC(C)=O)C(C)(C)SSC1(C)C)C(=O)N[C@@H](CC(N)=O)C(=O)N[C@@H](CC(N)=O)C(N)=O [compound 7],24 h,12 h,10 to 100 nM,–,–,–,–,–,–,–
CC(=O)NCCCC[C@H](NC(=O)[C@](C)(CC(C)C)NC(=O)[C@H](Cc1ccc2ccccc2c1)NC(=O)[C@H](Cc1ccc(OCCN)cc1)NC(=O)[C@H]1NC(=O)[C@H](CCC(N)=O)NC(=O)[C@H](Cc2c[nH]c3c(F)cccc23)NC(=O)[C@H]([C@@H](C)O)NC(=O)[C@H](CC(N)=O)NC(=O)[C@@H](NC(C)=O)C(C)(C)SSC1(C)C)C(=O)N[C@@H](CC(N)=O)C(=O)N[C@@H](CC(N)=O)C(N)=O [compound 8],24 h,15 h,10 to 100 nM,–,–,–,–,–,–,–
CC(=O)NCCCC[C@H](NC(=O)[C@](C)(CC(C)C)NC(=O)[C@H](Cc1c[nH]c2cc(Cl)ccc12)NC(=O)[C@H](Cc1ccc(OCCN)cc1)NC(=O)[C@H]1NC(=O)[C@H](CCC(N)=O)NC(=O)[C@H](Cc2c[nH]c3ccccc23)NC(=O)[C@H]([C@@H](C)O)NC(=O)[C@H](CC(N)=O)NC(=O)[C@@H](NC(C)=O)C(C)(C)SSC1(C)C)C(=O)N[C@@H](CC(N)=O)C(=O)N[C@@H](CC(N)=O)C(N)=O [compound 13],–,–,1 to 10 nM,17 h,24 h,–,–,–,–,–
CC(=O)NCCCC[C@H](NC(=O)[C@](C)(CC(C)C)NC(=O)[C@H](Cc1c[nH]c2cc(F)ccc12)NC(=O)[C@H](Cc1ccc(OCCN)cc1)NC(=O)[C@H]1NC(=O)[C@H](CCC(N)=O)NC(=O)[C@H](Cc2c[nH]c3ccccc23)NC(=O)[C@H]([C@@H](C)O)NC(=O)[C@H](CC(N)=O)NC(=O)[C@@H](NC(C)=O)C(C)(C)SSC1(C)C)C(=O)N[C@@H](CC(N)=O)C(=O)N[C@@H](CC(N)=O)C(N)=O [compound 14],–,–,10 to 100 nM,9 h,24 h,–,–,–,–,–
CC(=O)NCCCC[C@@H]1NC(=O)[C@@H](NC(C)=O)C(C)(C)SSC(C)(C)[C@@H](C(=O)N[C@@H](Cc2ccc(OCCN)cc2)C(=O)N[C@@H](Cc2ccc3ccccc3c2)C(=O)N[C@@](C)(CCCCN)C(=O)N[C@@H](CCCCNC(C)=O)C(=O)N[C@@H](CC(N)=O)C(=O)NCCC(N)=O)NC(=O)[C@H](CCC(N)=O)NC(=O)[C@H](Cc2c[nH]c3c(C)cccc23)NC(=O)[C@H]([C@@H](C)O)NC1=O [compound 239],–,–,–,–,–,< 10 nM,> 24 h,7 h,> 24 h,1 to 10 nM
CC(=O)NCCCC[C@@H]1NC(=O)[C@H](Cc2c[nH]c3c(C)cccc23)NC(=O)[C@H]([C@@H](C)O)NC(=O)[C@H](CC(N)=O)NC(=O)[C@@H](NC(C)=O)C(C)(C)SSC(C)(C)[C@@H](C(=O)N[C@@H](Cc2ccc(OCCN)cc2)C(=O)N[C@@H](Cc2ccc3ccccc3c2)C(=O)N[C@@](C)(CCCCN)C(=O)N[C@@H](CCCCNC(C)=O)C(=O)N[C@@H](CC(N)=O)C(=O)NCCC(N)=O)NC1=O [compound 242],–,–,–,–,–,< 10 nM,> 24 h,8 h,> 24 h,< 1 nM
CC(=O)NCCCC[C@H](NC(=O)[C@](C)(CCCCN)NC(=O)[C@H](Cc1ccc2ccccc2c1)NC(=O)[C@H](Cc1ccc(OCCN)cc1)NC(=O)[C@H]1NC(=O)[C@H](CCCNC(N)=O)NC(=O)[C@H](Cc2c[nH]c3c(C)cccc23)NC(=O)[C@H]([C@@H](C)O)NC(=O)[C@H](CC(N)=O)NC(=O)[C@@H](NC(C)=O)C(C)(C)SSC1(C)C)C(=O)N[C@@H](CC(N)=O)C(=O)NC(C)(C)C(N)=O [compound 264] (Ac-[Pen]NT[Trp(7-Me)][Cit][Pen][AEF][2Nal][αMeK]K(Ac)N[Aib]-NH2; disulfide 1-6),–,–,–,18 h,–,< 10 nM,> 24 h,> 24 h,> 24 h,< 1 nM
CC(=O)NCCCC[C@@H]1NC(=O)[C@H](Cc2c[nH]c3c(C)cccc23)NC(=O)[C@H]([C@@H](C)O)NC(=O)[C@H](CC(N)=O)NC(=O)[C@@H](NC(C)=O)C(C)(C)SSC(C)(C)[C@@H](C(=O)N[C@@H](Cc2ccc(OCCN)cc2)C(=O)N[C@@H](Cc2ccc3ccccc3c2)C(=O)N[C@@](C)(CCCCN)C(=O)N[C@@H](CCCCNC(C)=O)C(=O)N[C@@H](CO)C(=O)NCCC(N)=O)NC1=O [compound 271],–,–,–,22 h,–,< 10 nM,> 24 h,> 24 h,> 24 h,1 to 10 nM
CC(=O)NCCCC[C@@H]1NC(=O)[C@H](Cc2c[nH]c3c(C)cccc23)NC(=O)[C@H]([C@@H](C)O)NC(=O)[C@H](CC(N)=O)NC(=O)[C@@H](NC(C)=O)C(C)(C)SSC(C)(C)[C@@H](C(=O)N[C@@H](Cc2ccc(OCCN)cc2)C(=O)N[C@@H](Cc2ccc3ccccc3c2)C(=O)N[C@@](C)(CCCCN)C(=O)N[C@@H](CCCCNC(C)=O)C(=O)N[C@@H](Cc2c[nH]cn2)C(=O)NCCC(N)=O)NC1=O [compound 272],–,–,–,–,–,< 10 nM,> 24 h,> 24 h,> 24 h,1 to 10 nM
CC(=O)NCCCC[C@@H]1NC(=O)[C@H](Cc2c[nH]c3c(C)cccc23)NC(=O)[C@H]([C@@H](C)O)NC(=O)[C@H](CC(N)=O)NC(=O)[C@@H](NC(C)=O)C(C)(C)SSC(C)(C)[C@@H](C(=O)N[C@@H](Cc2ccc(OCCN)cc2)C(=O)N[C@@H](Cc2ccc3ccccc3c2)C(=O)N[C@@](C)(CCCCN)C(=O)N[C@@H](CCC(=O)O)C(=O)NCCC(=O)NCCC(N)=O)NC1=O [compound 273],–,–,–,8 h,–,< 10 nM,> 24 h,12 h,> 24 h,1 to 10 nM
CC(=O)NCCCC[C@H](NC(=O)[C@](C)(CCCN)NC(=O)[C@H](Cc1ccc2ccccc2c1)NC(=O)[C@H](Cc1ccc(OCCN)cc1)NC(=O)[C@H]1NC(=O)[C@H](CCC(N)=O)NC(=O)[C@H](Cc2c[nH]c3c(C)cccc23)NC(=O)[C@H]([C@@H](C)O)NC(=O)[C@H](CC(N)=O)NC(=O)[C@@H](NC(C)=O)C(C)(C)SSC1(C)C)C(=O)N[C@@H](CC(N)=O)C(=O)NCCC(N)=O [compound 278],–,–,–,19 h,–,< 10 nM,> 24 h,15 h,> 24 h,< 1 nM
CC(=O)N[C@@H]1C(=O)N[C@@H](CC(N)=O)C(=O)N[C@@H]([C@@H](C)O)C(=O)N[C@@H](Cc2c[nH]c3c(C)cccc23)C(=O)N[C@@H](CCC(N)=O)C(=O)N[C@H](C(=O)N[C@@H](Cc2ccc(OCCN)cc2)C(=O)N[C@@H](Cc2ccc3ccccc3c2)C(=O)N[C@@](C)(CCCCN)C(=O)N[C@@H](CCC(=O)O)C(=O)N[C@@H](CC(N)=O)C(=O)NCCC(N)=O)C(C)(C)SSC1(C)C [compound 282],–,–,–,–,–,< 10 nM,> 24 h,22 h,> 24 h,1 to 10 nM
